This is an account of results in patent US20040176370A1, “3,4-Dihdro-N-[[1-(3-hydroxybutyl)-4-piperidinyl]methyl]-2H-[1,3]oxazino[3,2-a]indole-10-carboxamide as 5-HT(4) receptor antagonist” (SmithKline Beecham p.l.c., priority 1998, published 2004).

The structures appear in SMILES notation.

The target of one assay is T1, 5-HT4 receptor (Cavia porcellus, UniProt O70528).
T1 construct: Longitudinal muscle-myenteric plexus (LMMP) preparations, 2-3 cm long, are obtained from the distal colon region; from tissue; host or cells: guinea-pig distal colon longitudinal muscle-myenteric plexus (LMMP)
Kind of assay: 5-HT4 receptor antagonist activity: 5-HT-evoked contractions of guinea-pig distal colon LMMP preparations. The class given is cell-based. The following applies: antagonism of 5-HT dose response curve, 45 minutes incubation. As to the method:
5-HT4 RECEPTOR ANTAGONIST ACTIVITY
Male Dunkin Hartley guinea-pigs, weighing 200-300 g are used. Longitudinal muscle-myenteric plexus (LMMP) preparations, 2-3 cm long, are obtained from the distal colon region. These are suspended under a 0.5 g load in isolated tissue baths containing Krebs Henseleit solution (NaCl 118 mM, KCl 4.7 mM KH2PO4 1.2 mM MgSO4 7H2O 1.2 mM, Glucose 11.1 mM, NaHCO3 25 mM, CaCl2 6H2O 2.5 mM) bubbled with 5% CO2 in O2, maintained at 37° C. and containing 1 uM Granisetron and 0.1 uM Methiothepin to block 5HT3 and 5HT1-like receptors respectively. 100 uM Pargyline is also added to the tissues at the start of the experiment. Tissues are left for 15 minutes to equilibrate and then exposed to 5-HT at 0.1 uM every 15 minutes until a uniform response is achieved. Following a half hour period for tissues to stabilise, non-cumulative dose response curves to 5-HT are constructed in all tissues. When base-lines have returned to normal, test compounds are added in the reservoirs of the tissue set-ups and washed in to the tissues. Tissues are incubated with the antagonists for 45 minutes after which a second non-cumulative dose response curve to 5-HT is constructed. […]

The subject of assay [1] is DMPP-evoked contractions (nicotinic receptor agonist). The assay can be described thus: Selectivity test: cholinergically-mediated contractions of guinea-pig colon evoked by the nicotinic receptor agonist DMPP. The class given is cell-based. The following applies: guinea-pig colon LMMP, dose response curve to DMPP. As to the method:
To test for selectivity of action, compounds are tested for their ability to antagonise cholinergically-mediated contractions of the guinea-pic colon, evoked by the nicotinic receptor agonist, DMPP (1,1-dimethyl-4-phenyl-piperazinium iodide). For these experiments, tissues and equipment are set up as for the above, 5HT4 receptor experiments. After sensitization, non-cumulative dose response curves are constructed to DMPP. Test compounds are incubated with the tissues as above, and a second dose response curve to DMPP created. Results are given as mean pKB±SEM values for each antagonists.

T1 sequence (O70528 whole entry): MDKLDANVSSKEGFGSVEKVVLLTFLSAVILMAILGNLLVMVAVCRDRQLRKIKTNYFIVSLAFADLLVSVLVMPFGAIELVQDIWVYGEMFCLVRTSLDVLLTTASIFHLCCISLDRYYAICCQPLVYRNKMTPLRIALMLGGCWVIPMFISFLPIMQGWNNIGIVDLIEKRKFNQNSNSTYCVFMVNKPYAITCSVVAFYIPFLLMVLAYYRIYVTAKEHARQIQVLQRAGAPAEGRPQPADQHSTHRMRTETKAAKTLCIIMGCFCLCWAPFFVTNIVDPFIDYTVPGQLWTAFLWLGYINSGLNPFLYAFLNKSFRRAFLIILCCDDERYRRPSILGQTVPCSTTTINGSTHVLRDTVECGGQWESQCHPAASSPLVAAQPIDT

What is called Kb is the affinity of an antagonist, worked out from how it opposes an agonist. Higher therefore signals a less potent antagonist. `CC(O)CCN1CCC(CNC(=O)c2c3n(c4ccccc24)CCCO3)CC1` (racemic) [compound of formula (I), 3,4dihydro-N-[[1-(3-hydroxybutyl)-4-piperidinyl]methyl]-2H-[1,3]oxazino[3,2-α]indole-10-carboxamide] showed an antagonist dissociation constant (Kb) at 5-HT4 receptor of 501 pM. In assay [1], the “effect on DMPP-evoked contractions” value was “did not significantly affect”.
